From patent US20230100789A1, “Method for activating AMPK and the use of Adenine” (Energenesis Biomedical Co., Ltd., priority 2013, published 2023)

What was measured:
TNFα = assay: LPS-induced inflammatory response in THP1 macrophage, secreted TNFα (ELISA); assay type: cell-based, human; conditions: THP1 macrophages, 50 ng LPS 6 hr
Procedure: (§1) Effects of adenine on inflammatory response were evaluated in human THP1 macrophage by examining protein level of intracellular COX-2 and secreted TNFα, IL-1β and IL-6. Differentiation of THP1 monocytes into macrophages was induced by 50 nM PMA for 24 hr. THP1 macrophages were further stimulated by 50 ng LPS for 6 hr in the presence of 10-600 μM of adenine or vehicle followed by cell lysis and western blot analysis. Equal amounts of protein were separated by SDS-PAGE and then electroblotted on to PVDF membranes. Membranes were blocked with 3% BSA in PBS for 60 min and incubated with an anti-COX-2 antibody (1:1,000, Cell signaling), an anti-actin antibody (1:5,000, Cell signaling) at 4° C. overnight followed by the corresponding secondary antibody for 1 h at room temperature (RT). Immunoreactive bands were detected by enhanced chemiluminescence (ECL; Pierce, Rockford, Ill., USA) and recorded using Kodak film (Rochester, N.Y., USA). The detected signals were scanned and then quantified using TotalLab Quant software (TotalLab). The secreted TNFα, IL-1β and IL-6 were analyzed by enzyme-linked immunosorbent assays.

IL-1β = assay: LPS-induced inflammatory response in THP1 macrophage, secreted IL-1β (ELISA); assay type: cell-based, human; conditions: THP1 macrophages, 50 ng LPS 6 hr
Procedure: as §1

LC3 = assay: Autophagy assay in Neuro2A cells (LC3-II/LC3-I western blot); assay type: cell-based, mouse; conditions: 24 h
Procedure: Amyloid β peptide and autophagy assay Effects of adenine on Amyloid β peptide were analyzed in mouse neuroblastoma cell Neuro2A. Neuro2A cells were cultured in high-glucose Dulbecco's modified Eagle's medium (DMEM) containing 10% fetal bovine serum (FBS), 4 mM L-glutamine, 2 mM sodium pyruvate and 1% penicillin/streptomycin (Invitrogen GibcoBRL, Carlsbad, Calif., USA) at 37° C. under 5% CO2. Cells were plated at 3×10^5 per well (6-well plate). 24 h after plating, cells were transfected with human APP695 and treated with indicated concentration of adenine for 24 h followed by cell lysis and western blot analysis. Equal amounts of protein were separated by SDS-PAGE and then electroblotted on to PVDF membranes. Membranes were blocked with 3% BSA in PBS for 60 min and incubated with an anti-Aβ antibody (1:1,000, abcam), an anti-LC3 antibody (1:1,000, Cell signaling), and an anti-actin antibody (1:5,000, Cell signaling) at 4° C. overnight followed by the corresponding secondary antibody for 1 h at room temperature (RT). Immunoreactive bands were detected by enhanced chemiluminescence (ECL; Pierce, Rockford, Ill., USA) and recorded using Kodakfilm (Rochester, N.Y., USA). The detected signals were scanned and then quantified by using TotalLab Quant software (TotalLab).
Because the conversion of LC3-I to LC3-II is indicative of autophagy activity, the higher LC3-II/LC3-I ratio in adenine treated cells reflects the ability of adenine to induce autophagy activity.

Aβ infusion mice = assay: Aβ-induced Alzheimer's disease model mice, Morris water maze; assay type: in vivo, C57BL/6J mice; conditions: daily IP 0.01, 0.1, 5 or 30 mg/kg for 4 weeks
Procedure: Aβ25-35 was purchased from Sigma-Aldrich (St. Louis, Mo.). The peptides were dissolved in distilled saline and aggregated by incubation at 37° C. for 7 days before injection. C57BL/6J mice were maintained at 22° C. under a 12-h light/dark cycle. Adult mice were anesthetized by ketamine (500 mg/kg) and xylazine (100 mg/kg) and placed in a stereotaxic frame (Stoelting, Wood Dale, Ill., USA). 5 nmol of the aggregated A1325-35 were injected into the lateral ventricle using a 10-μ1 Hamilton syringe (Hamilton Company, Reno, Nev., USA). The target anterior-posterior (AP), medial-lateral (ML) and dorsoventral coordinates were −0.5 mm, ±1 mm and −2.5 mm relative to the bregma. To evaluate the effect of adenine on neurodegenerative disease, Aβ infusion mice were daily intraperitoneally injected with 0.01, 0.1, 5 or 30 mg/kg bodyweight of adenine or vehicle for 4 weeks. The cognitive functions of these mice were analyzed by using Morris water maze assay after 4 weeks injection. The water maze was performed in a circular pool filled with water and a platform was submerged below the water's surface in the target quadrant for hidden platform test. […] Mice were allowed to swim in the maze for 60 s and recorded by a video camera. The latency to find the platform and swim paths were analyzed by EthoVision software (Version 3.1, Noldus, The Netherlands).

high-fat diet-fed mice = assay: Anti-diabetic effects in high-fat diet-fed mice (type 2 diabetes model); assay type: in vivo, C57BL/6J mice; conditions: IP 0.1 to 50 mg/kg twice a day for 6 days
Procedure: To further evaluate the effects of adenine on the modulation of plasma glucose level, the high-fat diet-fed mice were served as a type 2 diabetes animal model. C57BL/6J mice were maintained at 22° C. under a 12-h light/dark cycle and fed either a high fat diet (60% kcal % fat) or a normal diet ad libitum. Intraperitoneal injections of adenine (0.1 to 50 mg/kg) or vehicle were given to the high-fat diet-fed mice from the age of 24 weeks and glucose readings were measure at 1 and 3 hr. IP administration of adenine or vehicle only to the high-fat diet-fed mice continued twice a day for 6 days. On day 6, plasma was collected 1 hr after the last dosing for analyzing, evaluating, measuring plasma glucose and triglycerides.

[1] = system: 6-mm full-thickness excisional skin wounds; assay: Excisional skin wound healing and scar formation in mice; assay type: in vivo, C57BL/6J mice
Procedure: C57BL/6J mice were maintained at 22° C. under a 12-h light/dark cycle. The experiments were performed with 12-weeks old mice. After anesthetized by an intraperitoneal injection of ketamine (500 mg/kg) and xylazine (100 mg/kg), 6-mm full-thickness excisional skin wounds was made on the backs of mice using 6-mm skin biopsy punches. Immediately after wounding, 10-1200 M of adenine in 25 l saline or saline alone was applied to the wound bed. The skin wounds were then covered by semipermeable transparent dressing and fixed to the skin. The mice were treated with adenine or vehicle for 14 days and then sacrificed. The scar formation is assessed by Masson's trichrome staining to observe the fibrosis process and the collagen framework of the healed wound (Fixed by 4% paraformaldehyde).

3T3 cells = assay: Fibroblast proliferation assay (trypan blue cell counting); assay type: cell-based, Human; conditions: 72 h, mean±SEM
Procedure: Human fibro blast cell line 3T3 were cultured in high-glucose Dulbecco's modified Eagle's medium (DMEM) containing 10% fetal bovine serum (FBS), 4 mM L-glutamine, 2 mM sodium pyruvate and 1% penicillin/streptomycin (Invitrogen GibcoBRL, Carlsbad, Calif., USA) at 37° C. under 5% CO2. For cell proliferation assay, 3T3 cells were plated at 1×10^5 per well (6-well plate). 24 h after plating, cells were treated with indicated concentration of adenine for 72 h and the number of viable cells was counted. Cells were detached using trypsin-EDTA solution and stained with trypan blue. The living cells were counted using hemocytometer. […] Data are presented as the mean±SEM of three independent experiments.

Nc1ncnc2nc[nH]c12 [Adenine, adenine]
TNF•(% to control) (TNFα; adenine 10 microM): 85 ± 9.1 % to control | TNF•(% to control) (TNFα; adenine 100 microM): 41 ± 2.6 % to control | TNF•(% to control) (TNFα; adenine 600 microM): 23 ± 1.8 % to control | IL-1β•(% to control) (IL-1β; adenine 10 microM): 91 ± 8.4 % to control | IL-1β•(% to control) (IL-1β; adenine 100 microM): 29 ± 5.5 % to control | IL-1β•(% to control) (IL-1β; adenine 600 microM): 17 ± 3.7 % to control | LC3-II/LC3-Iratio (relative to control) (LC3; adenine 10 microM): 1.2 ± 0.1 relative to control | LC3-II/LC3-Iratio (relative to control) (LC3; adenine 20 microM): 1.8 ± 0.3 relative to control | LC3-II/LC3-Iratio (relative to control) (LC3; adenine 30 microM): 2.8 ± 0.2 relative to control | LC3-II/LC3-Iratio (relative to control) (LC3; adenine 40 microM): 2.9 ± 0.2 relative to control | LC3-II/LC3-Iratio (relative to control) (LC3; adenine 50 microM): 3.2 ± 0.3 relative to control | percentage time in target quadrant, probe assay (Aβ infusion mice): higher percentage time in target quadrant | time to find platform, hidden platform test (Aβ infusion mice; dose-dependent): significantly shorter time to find platform | lower body weight compare to the control group (high-fat diet-fed mice): more than 15% | lower plasma glucose compare to the control group (high-fat diet-fed mice; plasma 1 hr after last dosing): > 30% | lower plasma triacylglycerides compare to the control group (high-fat diet-fed mice; plasma 1 hr after last dosing): more than 35% | lower plasma glucose compare to the control group (high-fat diet-fed mice; plasma 1 hr after last dosing, listed as adenine): more than 30% | scar width ([1]; topical adenine, 14 days post-wounding, vs vehicle treated wounds): significantly decreased the scar width | extent of wound closure ([1]; topical, 10-1200 µM of adenine in 25 µl saline, 14 days of treatment, dose-dependent, vs control mice): significantly greater | Cell number (% to control) (3T3 cells; adenine 10 microM): 91 ± 2.7 % to control | Cell number (% to control) (3T3 cells; adenine 50 microM): 73 ± 8.1 % to control | Cell number (% to control) (3T3 cells; adenine 100 microM): 64 ± 5.3 % to control | Cell number (% to control) (3T3 cells; adenine 200 microM): 48 ± 2.8 % to control | Cell number (% to control) (3T3 cells; adenine 500 microM): 33 ± 6.4 % to control | Cell number (% to control) (3T3 cells; adenine 1000 microM): 27 ± 11.3 % to control
